In article PMC9186362, “Design and biological evaluation of substituted 5,7-dihydro-6H-indolo[2,3-c]quinolin-6-one as novel selective Haspin inhibitors” (Journal of Enzyme Inhibition and Medicinal Chemistry, 2022):

Legend:
HsCdk2/Cyc A = HsCdk2/Cyc A (Homo sapiens, UniProt P24941); experiment: ADP-Glo kinase assay; assay type: biochemical, Homo sapiens (Hs); details: mean n = 2, % of maximum activity of DMSO control, read-out: % Residual activity at 1 μM CDK2
Method: (§1) Kinase activities were determined using the ADP-Glo methodology (ADP-Glo Kinase Assay; Promega) according to the assay described by Nguyen et al.[32] except for MmCLK1. The later was assayed in the following buffer: 10 mM MgCl2, 1 mM EGTA, 1 mM DTT, 25 mM Tris-HCl pH 7.5, 50 µg/ml heparin, 0.15 mg/ml BSA, with 0.027 µg/µl of the following peptide: GRSRSRSRSRSR as substrate.

HsCdk5/p25 = HsCdk5/p25 (Homo sapiens, UniProt Q00535); experiment: ADP-Glo kinase assay; assay type: biochemical, Homo sapiens (Hs); details: mean n = 2, % of maximum activity of DMSO control, read-out: % Residual activity at 1 μM CDK5
HsCdk5/p25, sequence (Q00535 whole entry): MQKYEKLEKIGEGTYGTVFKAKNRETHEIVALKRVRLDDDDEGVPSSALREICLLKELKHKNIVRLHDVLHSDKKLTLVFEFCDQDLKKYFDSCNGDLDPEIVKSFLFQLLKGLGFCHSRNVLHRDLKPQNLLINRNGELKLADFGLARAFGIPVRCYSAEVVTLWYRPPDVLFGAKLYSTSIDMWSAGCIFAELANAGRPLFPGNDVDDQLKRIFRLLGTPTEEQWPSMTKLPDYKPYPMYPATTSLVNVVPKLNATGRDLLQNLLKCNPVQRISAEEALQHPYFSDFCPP
HsCdk5/p25, sequence (Q15078 99-307 partner limits assumed): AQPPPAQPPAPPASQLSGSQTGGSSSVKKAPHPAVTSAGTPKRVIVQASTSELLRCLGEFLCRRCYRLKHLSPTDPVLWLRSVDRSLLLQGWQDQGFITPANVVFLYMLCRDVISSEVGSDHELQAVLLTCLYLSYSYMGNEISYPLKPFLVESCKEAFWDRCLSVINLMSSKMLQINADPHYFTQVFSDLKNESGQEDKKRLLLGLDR
Method: as §1

HsCdk9/Cyc E = HsCdk9/Cyc E (Homo sapiens, UniProt P50750); experiment: ADP-Glo kinase assay; assay type: biochemical, Homo sapiens (Hs); details: mean n = 2, % of maximum activity of DMSO control, read-out: % Residual activity at 1 μM CDK9
HsCdk9/Cyc E, sequence (P50750 whole entry): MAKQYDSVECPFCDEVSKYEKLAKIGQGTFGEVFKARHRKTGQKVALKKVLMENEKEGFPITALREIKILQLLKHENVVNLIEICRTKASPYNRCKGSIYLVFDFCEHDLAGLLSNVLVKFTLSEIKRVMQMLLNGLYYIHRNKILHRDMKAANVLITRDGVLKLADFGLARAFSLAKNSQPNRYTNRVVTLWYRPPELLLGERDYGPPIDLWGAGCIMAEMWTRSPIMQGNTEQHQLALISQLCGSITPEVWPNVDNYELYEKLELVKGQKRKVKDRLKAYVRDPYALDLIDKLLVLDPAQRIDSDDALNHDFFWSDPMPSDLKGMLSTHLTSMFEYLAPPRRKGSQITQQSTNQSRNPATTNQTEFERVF
HsCdk9/Cyc E, sequence (O60563 whole entry partner): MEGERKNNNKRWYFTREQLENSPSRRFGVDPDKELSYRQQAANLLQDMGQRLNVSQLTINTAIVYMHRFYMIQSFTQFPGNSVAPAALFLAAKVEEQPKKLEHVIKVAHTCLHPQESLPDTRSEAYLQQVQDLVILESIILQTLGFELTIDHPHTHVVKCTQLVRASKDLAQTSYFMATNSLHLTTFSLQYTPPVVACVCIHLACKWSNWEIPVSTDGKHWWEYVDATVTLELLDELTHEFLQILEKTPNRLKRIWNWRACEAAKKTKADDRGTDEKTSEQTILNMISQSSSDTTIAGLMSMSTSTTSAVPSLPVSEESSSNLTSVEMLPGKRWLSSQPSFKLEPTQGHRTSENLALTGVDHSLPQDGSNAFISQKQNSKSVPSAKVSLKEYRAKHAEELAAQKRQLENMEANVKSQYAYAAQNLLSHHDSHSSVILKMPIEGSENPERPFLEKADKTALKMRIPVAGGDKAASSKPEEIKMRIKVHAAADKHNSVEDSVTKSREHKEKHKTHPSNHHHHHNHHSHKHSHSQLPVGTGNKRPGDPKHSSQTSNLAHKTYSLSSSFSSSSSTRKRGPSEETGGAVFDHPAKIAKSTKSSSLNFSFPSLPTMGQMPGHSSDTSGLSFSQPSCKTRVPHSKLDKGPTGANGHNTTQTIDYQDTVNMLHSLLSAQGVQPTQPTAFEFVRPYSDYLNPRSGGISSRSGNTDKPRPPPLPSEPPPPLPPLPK
Method: as §1

HsGSK3β = HsGSK3β (Homo sapiens, UniProt P49841); experiment: ADP-Glo kinase assay; assay type: biochemical, Homo sapiens (Hs); details: mean n = 2, % of maximum activity of DMSO control, read-out: % Residual activity at 1 μM GSK3β
HsGSK3β, sequence (P49841 whole entry): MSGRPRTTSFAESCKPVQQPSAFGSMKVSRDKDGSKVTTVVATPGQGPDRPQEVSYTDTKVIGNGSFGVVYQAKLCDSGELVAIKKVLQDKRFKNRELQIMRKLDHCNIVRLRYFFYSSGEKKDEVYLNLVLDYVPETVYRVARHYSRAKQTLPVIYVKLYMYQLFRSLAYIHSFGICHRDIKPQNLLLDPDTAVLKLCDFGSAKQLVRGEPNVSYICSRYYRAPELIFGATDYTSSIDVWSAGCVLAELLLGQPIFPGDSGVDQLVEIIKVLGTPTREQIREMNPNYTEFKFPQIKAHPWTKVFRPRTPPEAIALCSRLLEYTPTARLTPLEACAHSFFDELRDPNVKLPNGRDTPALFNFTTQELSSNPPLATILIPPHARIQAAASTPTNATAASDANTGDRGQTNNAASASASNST
Method: as §1

HsHaspin = target: T1, HsHaspin (Homo sapiens, UniProt Q8TF76); experiment: ADP-Glo kinase assay; assay type: biochemical, Homo sapiens (Hs); details: for remaining activity at 1 µM: mean n = 2, % of maximum activity of DMSO control, read-out: % Residual activity at 1 μM Haspin; for IC50: dose-response curve, each point in duplicate, read-out: Kinase inhibition (IC50) Haspin
T1 sequence (Q8TF76 1-798): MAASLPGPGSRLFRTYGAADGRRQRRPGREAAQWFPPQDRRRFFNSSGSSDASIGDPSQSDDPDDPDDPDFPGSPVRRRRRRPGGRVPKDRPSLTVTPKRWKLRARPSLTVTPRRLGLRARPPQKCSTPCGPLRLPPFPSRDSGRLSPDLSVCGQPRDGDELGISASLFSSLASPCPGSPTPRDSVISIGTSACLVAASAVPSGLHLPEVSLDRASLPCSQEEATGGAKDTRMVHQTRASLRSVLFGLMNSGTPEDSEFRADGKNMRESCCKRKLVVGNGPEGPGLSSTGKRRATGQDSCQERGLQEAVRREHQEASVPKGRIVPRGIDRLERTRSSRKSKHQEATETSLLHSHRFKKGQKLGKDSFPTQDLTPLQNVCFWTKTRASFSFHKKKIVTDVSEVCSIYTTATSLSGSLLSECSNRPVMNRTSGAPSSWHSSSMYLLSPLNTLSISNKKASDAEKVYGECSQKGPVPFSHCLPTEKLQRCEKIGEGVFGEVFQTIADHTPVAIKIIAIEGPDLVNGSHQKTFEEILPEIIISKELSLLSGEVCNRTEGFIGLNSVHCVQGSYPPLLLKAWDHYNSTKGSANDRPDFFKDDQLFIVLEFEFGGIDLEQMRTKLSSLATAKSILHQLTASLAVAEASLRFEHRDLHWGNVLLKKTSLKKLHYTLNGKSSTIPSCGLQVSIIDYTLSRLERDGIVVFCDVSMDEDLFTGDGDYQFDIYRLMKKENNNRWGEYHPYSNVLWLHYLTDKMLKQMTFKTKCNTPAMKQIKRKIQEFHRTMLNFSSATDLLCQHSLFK
Method: as §1

HsPIM1 = HsPIM1 (Homo sapiens, UniProt P11309); experiment: ADP-Glo kinase assay; assay type: biochemical, Homo sapiens (Hs); details: mean n = 2, % of maximum activity of DMSO control, read-out: % Residual activity at 1 μM PIM1
HsPIM1, sequence (P11309 whole entry): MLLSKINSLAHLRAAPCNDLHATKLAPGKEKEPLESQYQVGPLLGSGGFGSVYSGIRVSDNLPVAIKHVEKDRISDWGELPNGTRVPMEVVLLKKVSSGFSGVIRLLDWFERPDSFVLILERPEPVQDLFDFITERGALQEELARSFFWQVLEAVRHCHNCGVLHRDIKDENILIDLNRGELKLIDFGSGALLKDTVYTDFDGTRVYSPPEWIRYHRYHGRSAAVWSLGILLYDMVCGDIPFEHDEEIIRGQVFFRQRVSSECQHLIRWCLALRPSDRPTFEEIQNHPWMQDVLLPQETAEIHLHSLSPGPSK
Method: as §1

MmCLK1 = MmCLK1 (Mus musculus, UniProt P22518); experiment: ADP-Glo kinase assay; assay type: biochemical, Mus musculus (Mm); details: for remaining activity at 1 µM: mean n = 2, % of maximum activity of DMSO control, read-out: % Residual activity at 1 μM CLK1; for Selectivity index CLK1/Haspin: IC50 CLK1/IC50 Haspin; for IC50: dose-response curve, each point in duplicate, read-out: Kinase inhibition (IC50) CLK1
MmCLK1, sequence (P22518 whole entry): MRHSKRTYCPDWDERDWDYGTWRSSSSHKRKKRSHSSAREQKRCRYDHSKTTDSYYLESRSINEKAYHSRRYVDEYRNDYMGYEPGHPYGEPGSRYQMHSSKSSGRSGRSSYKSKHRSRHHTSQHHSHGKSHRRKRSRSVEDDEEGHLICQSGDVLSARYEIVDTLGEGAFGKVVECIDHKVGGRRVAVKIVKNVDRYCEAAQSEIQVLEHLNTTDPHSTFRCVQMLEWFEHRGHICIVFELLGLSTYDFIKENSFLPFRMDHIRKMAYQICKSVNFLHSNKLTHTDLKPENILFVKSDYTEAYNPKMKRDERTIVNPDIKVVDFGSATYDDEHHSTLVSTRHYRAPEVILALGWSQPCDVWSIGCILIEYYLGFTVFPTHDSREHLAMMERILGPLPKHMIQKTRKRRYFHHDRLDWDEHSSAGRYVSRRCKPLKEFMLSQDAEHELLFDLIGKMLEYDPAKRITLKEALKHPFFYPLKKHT
Method: as §1

RnDYRK1A = RnDYRK1A (Rattus norvegicus, UniProt Q63470); experiment: ADP-Glo kinase assay; assay type: biochemical, Rattus norvegicus (Rn); details: for remaining activity: mean n = 2, % of maximum activity of DMSO control, read-out: % Residual activity at 1 μM DYRK1A; for Selectivity index DYRK/Haspin: IC50 DYRK1A/IC50 Haspin; for IC50: dose-response curve, each point in duplicate, read-out: Kinase inhibition (IC50) DYRK1A
Method: as §1

Row | Compound | remaining activity at 1 µM (HsCdk2/Cyc A) | remaining activity at 1 µM (HsCdk5/p25) | remaining activity at 1 µM (HsCdk9/Cyc E) | remaining activity at 1 µM (HsGSK3β) | remaining activity at 1 µM (HsHaspin) | remaining activity at 1 µM (HsPIM1) | remaining activity at 1 µM (MmCLK1) | remaining activity (RnDYRK1A) | melting point | IC50 (HsHaspin) | Selectivity index CLK1/Haspin (MmCLK1) | IC50 (MmCLK1) | Selectivity index DYRK/Haspin (RnDYRK1A) | IC50 (RnDYRK1A)
1 | O=c1[nH]c2cc(O)ccc2c2c1[nH]c1ccccc12 [Compound 47, 3-Hydroxy-5,7-dihydro-6H-indolo[2,3-c]quinolin-6-one] | 61% | 59% | 20% | 47% | 28% | 37% | 22% | 33% | 238 to 240 °C (dec.) |  |  |  |  | 
2 | COc1ccc2c(c1)[nH]c1c(=O)[nH]c3ccc(OC)cc3c12 [Compound 59, 2,9-Dimethoxy-5,7-dihydro-6H-indolo[2,3-c]quinolin-6-one] | 74% | 51% | 41% | 41% | 13% | 34% | 12% | 21% | 235 to 237 °C | 30 nM | 3 | 94 nM | 2 | 73 nM
3 | COc1ccc2c(c1)c1c3cc(C(F)(F)F)ccc3[nH]c(=O)c1n2C [Compound 63, 10-Methoxy-7-methyl-2-(trifluoromethyl)-5,7-dihydro-6H-Indolo[2,3-c]quinolin-6-one] | 67% | 68% | 45% | 44% | 51% | 42% | 19% | 29% |  |  |  |  |  | 
4 | O=c1[nH]c2ccccc2c2c1[nH]c1ccccc12 [Compound 45, 5,7-Dihydro-6H-indolo[2,3-c]quinolin-6-one] | 100% | 100% | 63% | 100% | 44% | 86% | 67% | 61% |  |  |  |  |  | 
5 | COc1ccc2c(c1)c1c3cc(N(C)C)ccc3[nH]c(=O)c1n2C [Compound 64, 2-(Dimethylamino)-10-methoxy-7-methyl-5,7-dihydro-6H-indolo[2,3-c]quinolin-6-one] | 100% | 100% | 59% | 81% | 39% | 82% | 11% | 19% | 231 to 234 °C |  |  |  |  | 
6 | COc1ccc2[nH]c3c(=O)[nH]c4ccc(C(F)(F)F)cc4c3c2c1 [Compound 53, 10-Methoxy-2-(trifluoromethyl)-5,7-dihydro-6H-indolo[2,3-c]quinolin-6-one] | 76% | 56% | 56% | 63% | 33% | 31% | 11% | 36% | 241 to 244 °C |  |  |  |  | 
7 | COc1ccc2c(c1)c1c3cc(O)ccc3[nH]c(=O)c1n2C [Compound 62, 2-Hydroxy-10-methoxy-7-methyl-5,7-dihydro-6H-indolo[2,3-c]quinolin-6-one] | 31% | 22% | 6% | 31% | 0% | 75% | 0% | 2% | > 250 °C | 18 nM | 7 | 124 nM | 7 | 131 nM
8 | COc1ccc2[nH]c(=O)c3[nH]c4ccc(F)cc4c3c2c1 [Compound 60, 10-Fluoro-2-methoxy-5,7-dihydro-6H-indolo[2,3-c]quinolin-6-one] | 97% | 100% | 100% | 100% | 9% | 100% | 31% | 44% | 135 to 136 °C | 19 nM | 6 | 122 nM | 8 | 143 nM
9 | COc1ccc2[nH]c3c(=O)[nH]c4cc(OC)c(OC)cc4c3c2c1 [Compound 52, 2,3,10-Trimethoxy-5,7-dihydro-6H-indolo[2,3-c]quinolin-6-one] | 58% | 63% | 37% | 22% | 2% | 29% | 1% | 5% | 205 to 208 °C | 16 nM | 5 | 78 nM | 15 | 242 nM
10 | COc1ccc2[nH]c3c(=O)[nH]c4ccc(NC(C)=O)cc4c3c2c1 [Compound 57, N-(10-Methoxy-6-oxo-6,7-dihydro-5H-indolo[2,3-c]quinolin-2-yl)acetamide] | 100% | 100% | 72% | 58% | 3% | 37% | 2% | 10% | 242 to 245 °C | 34 nM | 8 | 259 nM | 8 | 280 nM
11 | COc1ccc2c(c1)[nH]c1c(=O)[nH]c3ccccc3c12 [Compound 58, 9-Methoxy-5,7-dihydro-6H-indolo[2,3-c]quinolin-6-one] | 62% | 55% | 55% | 51% | 59% | 48% | 49% | 55% | 235 to 237 °C |  |  |  |  | 
